Tests used:
[1] = cited from earlier work
[2] = UV degradation of folic acid (450 nm fluorescence before and after UV radiation); assay type: physicochemical; settings: for Degradation degree / IUV/I (ratio of FA fluorescence intensity after UV radiation to before): UV radiation pH 7.4
From the text: As mentioned above, folic acid is sensitive to UV radiation. Because of intramolecular fluorescence quenching, folic acid has an extremely low fluorescence quantum yield, approximately 0.005. Pterins, which is formed after the cleavage of the C9-N10 bond in the folic acid molecule, has an increased fluorescence peak around 445 nm. The fluorescence quantum yield of 6-formyl pterin (FPT) is nearly 0.1 and that of pterin-6-carboxylic acid (PCA) is about 0.2. The fluorescence in the region of 445 nm increases with the formation of FPT as a result of the C9-N10 bond cleavage followed by the photo-induced conversion of FPT to PCA [M. K. Off et al., Journal of Photochemistry and Photobiology B: Biology 80 (2005) 47-55].
The UV degradation of folic acid was investigated in this study. The folic acid/protein/polysaccharide nanogel solution at pH 4.0 containing 0.25 or 0.5 mM folic acid was placed in a 7 ml glass bottle at a distance of 30 cm from a UV radiometer (500 w, peak A=365 nm) for 1 h. Individual folic acid dissolved in 10 mM pH 7.4 phosphate buffer with FA concentration of 0.25 or 0.5 mM was also investigated. The mixture of 5 mg/ml protein and 0.25 mM folic acid at pH 7.4, and the mixture of 15 mg/ml polysaccharide and 0.25 mM folic acid at pH 7.4 were also investigated. After the UV radiation, the folic acid/protein/polysaccharide nanogel solution was adjusted to pH 7.4 to release folic acid. The released folic acid in the solution was isolated by ultrafiltration and was analyzed as described below. After 10 and 20 times dilution for 0.25 and 0.5 mM folic acid, respectively, the 450 nm fluorescence intensity of the ultrafiltrate excited at 348 nm was measured.
For individual folic acid solution, after the UV radiation, the fluorescence intensity at 450 nm increases 89 and 85 times when folic acid concentration was 0.25 and 0.5 mM, respectively. The average 87 times of the increase for the fluorescence intensity after the UV radiation indicates the degradation of the folic acid inside the glass bottle. […] Compared with the individual folic acid, the degradation of folic acid reduces to 30% and 22% in the presence of polysaccharide and protein at pH 7.4, respectively. Folic acid/protein/polysaccharide nanogels can effectively protect the folic acid from the degradation at pH 4.0; only 12% of the loaded folic acid was degraded after the same UV radiation. […] The released and isolated folic acid from folic acid/protein/polysaccharide nanogels was radiated by UV light. After the same radiation, the folic acid fluorescence changed as the folic acid solution prepared at pH 7.4 directly.
The UV degradation of folic acid was investigated. Compared with the individual folic acid, the degradation of folic acid reduces to 19% in the presence of pea protein (Table 4). Folic acid/pea protein/polysaccharide nanogels can effectively protect the folic acid from the degradation at pH 4.0; only 13% of the loaded folic acid was degraded after the same UV radiation.

[3] = Interaction of folic acid with soy protein, soy polysaccharide or complex nanogel at pH 7.4; free folic acid isolated by ultrafiltration; assay type: physicochemical; settings: FA concentration in feed 0.5 mM
Protocol: Considering the solubility of folic acid, the interaction at pH 7.4 was investigated. The individual protein solution, individual polysaccharide solution, and the protein/polysaccharide complex nanogel solution were adjusted to pH 7.4 first. Then the folic acid, dissolved in 10 mM phosphate buffer pH 7.4, was added and the mixture was incubated under stirring at room temperature overnight. The final protein concentration in the mixture was 4 mg/ml and polysaccharide concentration was 12 mg/ml. The free folic acid in the mixture was isolated by a high-flow ultrafiltration membrane (cutoff molecular weight 3 kDa, MicroconYM-3, Millipore), and was collected in the ultrafiltrate. Individual folic acid solution was also passed through the ultrafiltration membrane; 97% of the folic acid (Table 1) in the ultrafiltrate confirms the recovery of the folic acid. The individual protein, individual polysaccharide, and protein/polysaccharide complex nanogel solutions were also passed through the ultrafiltration membrane; their UV spectra of the ultrafiltrates (FIG. 1) show the absorbance at UV region, indicating small peptides in the ultrafiltrates. The FA concentration in the ultrafiltrate was calculated by deducting the 280 nm absorbance shown in FIG. 1 from the 280 nm absorbance of the ultrafiltrate.

[4] = Table 3, FA in feed 0.25 mM, UV 1 h
[5] = Table 3, FA in feed 0.5 mM, UV 1 h

Row | Degradation degree [2, 4] | IUV/I (ratio of FA fluorescence intensity after UV radiation to before) [2, 4] | IUV/I (ratio of FA fluorescence intensity after UV radiation to before) ([2]; Table 3, FA in feed 0.25 mM, UV 1 h, listed as folic acid) | Degradation degree [2, 5] | IUV/I (ratio of FA fluorescence intensity after UV radiation to before) [2, 5] | IUV/I (ratio of FA fluorescence intensity after UV radiation to before) ([2]; Table 3, FA in feed 0.5 mM, UV 1 h, listed as folic acid) | Degradation degree ([2]; Table 4, FA in feed 0.25 mM) | IUV/I (ratio of FA fluorescence intensity after UV radiation to before) ([2]; Table 4, FA in feed 0.25 mM) | average increase of the fluorescence intensity after the UV radiation ([2]; average of 0.25 and 0.5 mM FA, pH 7.4) | FA concentration in ultrafiltration [3] | Recovered FA in ultrafiltration [3] | Recovered FA in ultrafiltration ([3]; listed as folic acid) | Structure (SMILES) | pKa [1]
1 |  |  |  |  |  |  |  |  |  |  |  |  | O=C(O)CCCC[C@@H]1SC[C@@H]2NC(=O)N[C@@H]21 [biotin] | 5.33
2 | 100% | 89 ± 3 | 89 | 100% | 85 ± 2 | 85 | 100% | 91 | 87 times | 0.485 ± 0.01 mM | 97 ± 2% | 97% | Nc1nc2ncc(CNc3ccc(C(=O)N[C@@H](CCC(=O)O)C(=O)O)cc3)nc2c(=O)[nH]1 [FA, folic acid] | 4.7

From patent publication US9661870B2, “Nanogel comprising water-soluble active ingredients” (DSM IP ASSETS B.V., priority 2012, dated 2017)
